Like-named read-outs stand apart in the source and are kept apart here. Bounds are passed on as bounds.

Data on 18 compounds can be found in patent US10112940B2, “Histone demethylase inhibitors” (Celgene Quanticel Research, Inc., priority 2014, dated 2018).

One test concerns the target JMJD2C (Homo sapiens (Human), UniProt Q9H3R0). The experiment in a line: JMJD2C in vitro enzyme inhibition assay (TR-FRET). It is filed as biochemical. The conditions noted are these: 0.3 nM JMJD2C, 300 nM H3K9me3-biotin peptide, 2 μM alpha-ketoglutaric acid, 30 minutes. Summed up: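 Baculovirus-expressed JMJD2C (aa 2-372), 0.3 nM, with 300 nM biotin-H3K9me3 peptide and 2 μM alpha-ketoglutarate in HEPES pH 7.3 with ascorbate and Fe(II), 30 min at room temperature, 11-point inhibitor series. H3K9me2 product detected by TR-FRET (Eu-antibody/streptavidin-APC, 665/615 ratio); IC50 fitted.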
(In TR-FRET formats the signal depends on donor and acceptor labels being close together.)

The test system of test [1] is KYSE-150 esophageal carcinoma cell line. Description: In vitro cell-based assay: BrdU incorporation cell proliferation ELISA. Set-up: species or system human. Particulars: KYSE-150 cells, 168 hours compound incubation, read-out: Cellular IC50. Put shortly:
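KYSE-150 cells (SMAD4 mut, TP53 mut) seeded at 2,000 cells/well, treated next day with 11-point dilutions (100 μM to 2 nM final) for 168 h. Proliferation read by 2 h BrdU labelling and colorimetric anti-BrdU ELISA at 450 nm; IC50 from curve fit.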
Background: Uptake of a labelled nucleoside into DNA is a usual measure of proliferation.

Sequence of JMJD2C (Q9H3R0 2-372): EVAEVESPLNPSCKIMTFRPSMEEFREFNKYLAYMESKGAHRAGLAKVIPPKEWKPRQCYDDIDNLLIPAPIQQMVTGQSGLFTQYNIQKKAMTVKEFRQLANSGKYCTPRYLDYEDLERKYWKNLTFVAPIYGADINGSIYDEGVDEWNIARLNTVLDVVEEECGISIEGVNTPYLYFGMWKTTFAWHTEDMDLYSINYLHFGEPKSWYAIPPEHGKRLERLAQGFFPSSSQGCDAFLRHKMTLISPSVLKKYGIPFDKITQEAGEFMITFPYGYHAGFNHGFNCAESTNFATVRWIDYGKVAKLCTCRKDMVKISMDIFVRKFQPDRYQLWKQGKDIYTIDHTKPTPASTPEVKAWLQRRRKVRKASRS

Consider `CN(c1ccc(Oc2nc(O)c3ccncc3n2)cc1)c1ccccc1F` [Example 96], for which the values for the IC50 (on JMJD2C; in test [1]) were 100 to 1000 nM and 1000 to 10000 nM, respectively.

As for `CCc1ccc(N(C)c2ccc(Oc3nc(O)c4ccncc4n3)cc2)nc1` [Example 97, 2-[4-[(5-ethylpyridin-2-yl)-methylamino]phenoxy]pyrido[3,4-d]pyrimidin-4-ol], the half-inhibitory concentration (IC50) (on JMJD2C; in test [1] (Homo sapiens)) was 100 to 1000 nM in each case.

Consider `CN(c1ccc(Oc2nc(O)c3ccncc3n2)cc1)c1ccc(C2=CCOCC2)cc1` [Example 98, 2-[4-[4-(3,6-dihydro-2H-pyran-4-yl)-N-methylanilino]phenoxy]pyrido[3,4-d]pyrimidin-4-ol], for which the half-inhibitory concentration (IC50) – broadly, the concentration that inhibits the measured activity by half – against JMJD2C is 1000 to 10000 nM; in test [1] (Homo sapiens), > 10000 nM.

For `CN(c1ccc(Oc2nc(O)c3ccncc3n2)cc1)c1ccc(C2CCOCC2)cc1` [Example 99, 2-[4-[N-methyl-4-(oxan-4-yl)anilino]phenoxy]pyrido[3,4-d]pyrimidin-4-ol], the results for the IC50 (against JMJD2C; in test [1] (Homo sapiens)) were 100 to 1000 nM and ≤ 100 nM, respectively.

Regarding `COCCNCC(C)c1ccc(N(C)c2ccc(Oc3nc(O)c4ccncc4n3)cc2)cc1` (stereo not drawn) [Example 100, 2-[4-[4-[1-(2-methoxyethylamino)propan-2-yl]-N-methylanilino]phenoxy]pyrido[3,4-d]pyrimidin-4-ol], the IC50 on JMJD2C was ≤ 100 nM; in test [1] (Homo sapiens), > 10000 nM.

Take `CN(c1ccc(OCC2CC2)cc1)c1ccc(Oc2nc(O)c3ccncc3n2)cc1` [Example 101, 2-[4-[4-(cyclopropylmethoxy)-N-methylanilino]phenoxy]pyrido[3,4-d]pyrimidin-4-ol]: the IC50 at JMJD2C lay in the range of 1000 to 10000 nM; in test [1] (Homo sapiens), 100 to 1000 nM.

In the case of `COCCN(c1ccc(Oc2nc(O)c3ccncc3n2)cc1)c1ccc(C(C)C)cc1` [Example 102, 2-[4-[N-(2-methoxyethyl)-4-propan-2-ylanilino]phenoxy]pyrido[3,4-d]pyrimidin-4-ol], the IC50 (against JMJD2C; in test [1] (Homo sapiens)) was 100 to 1000 nM each time.

On to `Oc1nc(Oc2ccc3c(ccn3-c3ccccc3)c2)nc2cnccc12` [Example 103, 2-(1-phenylindol-5-yl)oxypyrido[3,4-d]pyrimidin-4-ol], for which the IC50 against JMJD2C is 1000 to 10000 nM; in test [1] (Homo sapiens), > 10000 nM.

In the case of `Oc1nc(Oc2ccc3c(ccn3C3CCNCC3)c2)nc2cnccc12` [Example 104, 2-(1-piperidin-4-ylindol-5-yl)oxypyrido[3,4-d]pyrimidin-4-ol], the IC50 at JMJD2C is ≤ 100 nM; in test [1] (Homo sapiens), > 10000 nM.

Take `Cc1ccc(N(C)c2ccc(Oc3nc(O)c4ccncc4n3)cc2)cc1N1CCN(C)CC1` [Example 105, 2-[4-[N,4-dimethyl-3-(4-methylpiperazin-1-yl)anilino]phenoxy]pyrido[3,4-d]pyrimidin-4-ol]: the half-maximal inhibitory concentration (IC50) against JMJD2C was ≤ 100 nM; in test [1] (Homo sapiens), 1000 to 10000 nM.

For `CN(c1ccc(CC(F)(F)F)cc1)c1ccc(Oc2nc(O)c3ccncc3n2)cc1` [Example 106, 2-[4-[N-methyl-4-(2,2,2-trifluoroethyl)anilino]phenoxy]pyrido[3,4-d]pyrimidin-4-ol], the IC50 on JMJD2C was 1000 to 10000 nM; in test [1] (Homo sapiens), ≤ 100 nM.

`CN(c1ccc(Oc2nc(O)c3ccncc3n2)cc1)c1ccc(C2(C(F)(F)F)CC2)cc1` [Example 107, 2-[4-[N-methyl-4-[1-(trifluoromethyl)cyclopropyl]anilino]phenoxy]pyrido[3,4-d]pyrimidin-4-ol]: the half-maximal inhibitory concentration (IC50) against JMJD2C was 1000 to 10000 nM; in test [1] (Homo sapiens), ≤ 100 nM.

Turning to `CC(c1ccc(N(C)c2ccc(Oc3nc(O)c4ccncc4n3)cc2)cc1)C(F)(F)F` (stereo not drawn) [Example 108, 2-[4-[N-methyl-4-(1,1,1-trifluoropropan-2-yl)anilino]phenoxy]pyrido[3,4-d]pyrimidin-4-ol], the half-inhibitory concentration (IC50) against JMJD2C is 100 to 1000 nM; in test [1] (Homo sapiens) it was ≤ 100 nM.

On to `CC(C)c1ccc(N(C)c2ccc(Oc3nc(O)c4ccncc4n3)cc2)cn1` [Example 109, 2-[4-[methyl-(6-propan-2-ylpyridin-3-yl)amino]phenoxy]pyrido[3,4-d]pyrimidin-4-ol], for which the 50% inhibitory concentration (IC50) is 100 to 1000 nM against JMJD2C and 1000 to 10000 nM in test [1] (Homo sapiens).

For `CN(c1ccc(Oc2nc(O)c3ccncc3n2)cc1)c1ccc(OC(F)(F)F)cc1` [Example 110, 2-[4-[N-methyl-4-(trifluoromethoxy)anilino]phenoxy]pyrido[3,4-d]pyrimidin-4-ol], the results for the IC50 (on JMJD2C; in test [1] (Homo sapiens)) were 1000 to 10000 nM and 100 to 1000 nM, respectively.

Take `CC(C)Oc1ccc(N(C)c2ccc(Oc3nc(O)c4ccncc4n3)cc2)cc1` [Example 111, 2-[4-(N-methyl-4-propan-2-yloxyanilino)phenoxy]pyrido[3,4-d]pyrimidin-4-ol]: the IC50 (against JMJD2C; in test [1] (Homo sapiens)) was 100 to 1000 nM in each case.

On to `CC(CCN(C)C)c1ccc(N(C)c2ccc(Oc3nc(O)c4ccncc4n3)cc2)cc1` (stereo not drawn) [Example 115, 2-(4-{[4-(3-dimethylamino-1-methyl-propyl)-phenyl]-methyl-amino}-phenoxy)-pyrido[3,4-d]pyrimidin-4-ol], for which the figures for the IC50 (against JMJD2C; in test [1] (Homo sapiens)) were ≤ 100 nM and > 10000 nM, respectively.

For the compound `CCN(c1ccc(Oc2nc(O)c3ccncc3n2)cc1)c1ccc(C(C)C)cc1` [Example 117, 2-(4-(ethyl(4-isopropylphenyl)amino)phenoxy)pyrido[3,4-d]pyrimidin-4-ol], the IC50 against JMJD2C was 1000 to 10000 nM; in test [1] (Homo sapiens), ≤ 100 nM.
